Earlier results as cited in US6534088B2, “Fibrate-statin combinations with reduced fed-fasted effects” (SkyePharma Canada Inc., priority 2001, dated 2003).

How the values were obtained:
[1] = not given; remark: listed apart in the source

## COCc1c(C(C)C)nc(C(C)C)c(/C=C/[C@@H](O)C[C@@H](O)CC(=O)O)c1-c1ccc(F)cc1 [Cerivastatin]
other
  solubility in water: soluble in water
[1]; oral administration
  effect of food on absorption: not sensitive to a food effect

## CC(C)n1c(/C=C/C(O)CC(O)CC(=O)O)c(-c2ccc(F)cc2)c2ccccc21 (centres unmarked) [Fluvastatin]
other
  solubility in water: soluble in water
[1]; oral administration
  time to peak concentrations: less than 1 hour

## CC[C@H](C)C(=O)O[C@H]1C[C@@H](C)C=C2C=C[C@H](C)[C@H](CC[C@@H]3C[C@@H](O)CC(=O)O3)[C@H]21 [Lovastatin]
other
  solubility in water: insoluble in water

## CC[C@H](C)C(=O)O[C@H]1C[C@H](O)C=C2C=C[C@H](C)[C@H](CC[C@@H](O)C[C@@H](O)CC(=O)O)[C@H]21 [Pravastatin]
other
  solubility in methanol and water: > 300 mg/mL
pH of 7.0
  partition coefficient (octanol/water): 0.59

## CC(C)(Oc1ccc(C(=O)c2ccc(Cl)cc2)cc1)C(=O)O [fenofibric acid]
[1]; metabolite in blood or plasma
  elimination half-life: approximately twenty
